Results reported in paper PMC10443802, “Targeting a xenobiotic transporter to ameliorate vincristine-induced sensory neuropathy” (JCI Insight, 2023).
“And” between values parts separate entries of the source, which are not always exact repeats. Equal values may be shown once.

Key:
mOATP1B2 = molecular target: T1, mOATP1B2 (Mus musculus, UniProt Q9JJL3); experiment: Inhibition of EβG uptake in HEK293 cells overexpressing mOATP1B2; assay type: cell-based; settings: HEK293 mOATP1B2; inhibitor 10 μM, 15-min pre-incubation
T1 sequence (Q9JJL3 1-689): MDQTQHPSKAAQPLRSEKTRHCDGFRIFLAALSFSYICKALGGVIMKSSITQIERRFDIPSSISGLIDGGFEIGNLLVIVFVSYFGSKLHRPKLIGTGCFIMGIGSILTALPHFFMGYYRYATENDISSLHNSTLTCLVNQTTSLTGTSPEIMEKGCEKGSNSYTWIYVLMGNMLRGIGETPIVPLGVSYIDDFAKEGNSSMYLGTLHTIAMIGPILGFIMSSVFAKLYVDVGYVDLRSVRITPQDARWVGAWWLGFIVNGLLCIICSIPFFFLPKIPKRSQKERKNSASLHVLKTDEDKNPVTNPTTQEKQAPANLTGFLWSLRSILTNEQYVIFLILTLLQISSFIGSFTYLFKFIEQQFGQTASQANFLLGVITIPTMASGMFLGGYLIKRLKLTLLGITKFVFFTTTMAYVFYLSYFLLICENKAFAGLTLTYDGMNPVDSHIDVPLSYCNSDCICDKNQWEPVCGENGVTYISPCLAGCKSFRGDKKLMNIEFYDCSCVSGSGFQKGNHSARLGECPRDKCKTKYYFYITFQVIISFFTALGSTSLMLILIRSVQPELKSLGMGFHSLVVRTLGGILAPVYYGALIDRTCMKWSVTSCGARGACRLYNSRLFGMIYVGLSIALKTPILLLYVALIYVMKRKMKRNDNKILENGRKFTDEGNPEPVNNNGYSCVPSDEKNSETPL

mice [1] = experiment: Open field locomotion, Basso Mouse Scale (BMS); assay type: in vivo; parameters: key: BMS score: higher = better hindlimb locomotion; normal = 9
Protocol: where the distance between two adjacent rungs is changeable (1-5 cm). The elevated ladder tests were initiated after mice had been acclimated to their surrounding for at least 4 h. The mice were placed at one end of the ladder and encouraged to move forward by a food reward at the other end of the ladder. If a […]
counted by an electrical counter. Experiments were repeated 3 times for each mouse, and an average of the three trials was used for analysis. Open-field locomotion was assessed with the Basso Mouse Scale (BMS) rating system (7). The open field was a round table that was 20.32 cm high and 1.524 m in diameter situated in a quiet testing room with normal lighting. The mice were acclimated to the testing table for 20 min daily for a week before drug administration. Two analysts blinded to the composition of the treatment groups simultaneously scored hindlimb locomotion for 4 min per mouse using a score sheet described previously (7). Parameters of interest included paw position (rotated in, rotated out, parallel placement), trunk stability, tail position, coordination, and plantar and dorsal support. Quantification was based on a scoring system where conditional variables are given a numerical representation in each category. A higher number correlates to better hindlimb locomotor function and ‘normal’ behavior scores a 9; conversely, a lower number represents abnormal locomotion. […]
by an automated ladder test. […]
using the mean Basso Mouse Scale for Locomotion (BMS) score. There were no pronounced differences […]
statistically significant.
(also on this page, place not known: Baseline Day 1 Day 2 Day 3 0 5 10 15 20 25 Number missed steps Wild-type Baseline Day 1 Day 2 Day 3 0 5 10 BMS Wild-type ns A B OATP1B2(-/-) OATP1B2(-/-) score of behavior. ns)

mice [2] = experiment: Gross motor performance, automated elevated ladder test; assay type: in vivo, mouse
rOATP1A1 = rOATP1A1 (Rattus norvegicus, UniProt P46720); experiment: Vincristine uptake screen, HeLa cells overexpressing rOATP1A1; assay type: in vitro ADME
Chain of rOATP1A1 (P46720 whole entry): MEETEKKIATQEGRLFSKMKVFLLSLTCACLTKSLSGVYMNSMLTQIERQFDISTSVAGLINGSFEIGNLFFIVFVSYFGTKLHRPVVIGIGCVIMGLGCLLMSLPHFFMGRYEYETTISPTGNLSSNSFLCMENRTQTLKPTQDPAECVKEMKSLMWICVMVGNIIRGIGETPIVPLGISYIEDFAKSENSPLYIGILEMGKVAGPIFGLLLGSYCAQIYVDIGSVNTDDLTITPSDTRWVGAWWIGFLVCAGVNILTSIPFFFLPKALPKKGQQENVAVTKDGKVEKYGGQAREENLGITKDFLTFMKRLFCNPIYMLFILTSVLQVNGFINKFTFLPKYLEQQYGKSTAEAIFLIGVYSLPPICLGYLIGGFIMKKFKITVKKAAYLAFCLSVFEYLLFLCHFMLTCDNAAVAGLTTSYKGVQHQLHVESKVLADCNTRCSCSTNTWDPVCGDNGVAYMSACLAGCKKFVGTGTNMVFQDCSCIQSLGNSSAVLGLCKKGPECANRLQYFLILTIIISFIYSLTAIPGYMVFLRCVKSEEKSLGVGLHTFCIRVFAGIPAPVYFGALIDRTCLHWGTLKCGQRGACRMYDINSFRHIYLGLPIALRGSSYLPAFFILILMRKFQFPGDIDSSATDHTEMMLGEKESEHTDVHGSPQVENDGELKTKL
Protocol: Relative uptake is expressed as percentage change compared with empty vector controls (n = 4–14 per group). […] Human OATP1B1 and OATP1B3 transporter–overexpressed cells were used as positive controls; empty vector controls were used as the negative control. […] Mechanical allodynia (C), thermal hyperalgesia (D), and sciatic nerve maximal action potential amplitudes (E) are expressed as percentage change relative to baseline values (n = 6–8 per group). Statistical analysis was performed using a 2-way ANOVA with Bonferroni’s post hoc test. **P < 0.01, ***P < 0.001, ****P < 0.0001, compared with baseline values. […] Data are shown as mean ± SEM. […]
transfected with transporters of interest, including hOAT1, hOAT3, hOAT4, hOATP1A2, hOATP3A1, hOATP4A1, hOATP5A1, hOATP1C1, hOATP1B1, hOATP1B3, hOATP2B1, hOCT1, hOCT2, hOCTN1, hOCTN2, hASBT, hNTCP, hNPT1, hMATE1, hOSTα/β, hPEPT1, hPEPT2, rOatp1a1, rOatp1a4, rOatp1a5, rOatp1b2, rNtcp, rAsbt, rOat1, and rOct1. Cells were transfected with expression plasmid or vector control lacking any insert using Lipofectin reagent (Invitrogen). […] The cellular radioactivity was quantified by liquid scintillation counting as described above. […]
Samples were analyzed using real-time quantitative PCR and Taqman Probes (Applied Biosystems). The relative gene expression was determined using the ΔΔCt method, and normalized to the mouse or human housekeeping gene, GAPDH. […]

Compound	EβG uptake (% of vehicle) (mOATP1B2)	BMS score (mice [1]; OATP1B2(-/-) mice, Day 1)	BMS score (mice [1]; OATP1B2(-/-) mice, Day 2)	BMS score (mice [1]; OATP1B2(-/-) mice, Day 3)	BMS score (mice [1]; Wild-type mice, Day 1)	BMS score (mice [1]; Wild-type mice, Day 2)	BMS score (mice [1]; Wild-type mice, Day 3)	Basso Mouse Scale for Locomotion (BMS) score, average (mice [1]; wild-type and OATP1B2(-/-) mice, single i.p. dose 1 mg/kg, up to 3 days)	Gross motor performance (automated ladder and open field tests) (mice [2]; WT mice or OATP1B2-/- mice, single i.p. dose 1 mg/kg)	Number of missed steps (mice [2]; Wild-type mice, Day 2)	Vincristine uptake (% of vector control) (rOATP1A1)
Cc1cn(-c2cc(NC(=O)c3ccc(C)c(Nc4nccc(-c5cccnc5)n4)c3)cc(C(F)(F)F)c2)cn1 [Nilotinib, nilotinib]	37.5921 % of vehicle and 30.8257 % of vehicle and 32.2185 % of vehicle	–	–	–	–	–	–	–	–	–	–
CC[C@]1(O)C[C@H]2CN(CCc3c([nH]c4ccccc34)[C@@](C(=O)OC)(c3cc4c(cc3OC)N(C=O)[C@H]3[C@@](O)(C(=O)OC)[C@H](OC(C)=O)[C@]5(CC)C=CCN6CC[C@]43[C@@H]65)C2)C1 [Vincristine, vincristine]	–	9	9	9	9 and 8	9 and 8	9	9	did not affect gross motor performance	7.667 and 9.667 and 8.333 and 5.667 and 8 and 10.6667 and 9.333	102.00 % of vector control and 84.00 % of vector control and 73.00 % of vector control and 95.00 % of vector control and 74.00 % of vector control and 58.00 % of vector control and 71.00 % of vector control and 62.00 % of vector control
